Measured values published in US10988474B2, “Compounds acting at multiple prostaglandin receptors giving a general anti-inflammatory response” (ALLERGAN, INC., priority 2011, dated 2021).

Assays:
Format in all cases: cell-based
[1] = target: T1, human prostanoid DP1 receptor (Homo sapiens, UniProt Q13258); experiment: FLIPR Ca2+ signaling PG antagonist assay, DP1 stable cell line; conditions: HEK-293 EBNA cells, human recombinant DP1 with chimeric Gqs; standard agonist BW 245C; read-out: DP (Kb, PG antagonist activity)
T1 construct: expressed in transfected cells
T1 sequence (Q13258 1-359): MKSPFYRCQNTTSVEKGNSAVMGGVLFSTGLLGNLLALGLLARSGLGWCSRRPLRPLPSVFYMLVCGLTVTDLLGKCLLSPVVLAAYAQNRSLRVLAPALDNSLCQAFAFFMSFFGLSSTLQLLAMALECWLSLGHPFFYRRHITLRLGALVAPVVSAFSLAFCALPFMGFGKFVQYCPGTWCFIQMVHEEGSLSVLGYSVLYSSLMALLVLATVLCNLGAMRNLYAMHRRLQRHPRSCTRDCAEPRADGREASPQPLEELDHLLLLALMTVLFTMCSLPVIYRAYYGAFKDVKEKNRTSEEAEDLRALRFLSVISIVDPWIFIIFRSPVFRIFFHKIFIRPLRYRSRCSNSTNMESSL
Outline: (§1)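 Stable HEK-293 EBNA lines (DP1 with chimeric Gqs, EP3 with Gqi, EP1 and FP without exogenous G protein) were Fluo-4AM-loaded and pretreated 4.5 min at 37 °C with compound (0.1–30 μM). Agonist (BW 245C for DP1, PGE2 for EP1/EP3, 17-phenyl-PGF2α for FP) was then added at 10^−11–10^−5 M. Peak Ca2+ fluorescence was taken relative to agonist at 10^−6 M.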

[2] = target: T2, human prostanoid EP1 receptor (Homo sapiens, UniProt P34995); experiment: FLIPR Ca2+ signaling PG antagonist assay, EP1 stable cell line; conditions: HEK-293 EBNA cells, human recombinant EP1, no exogenous G-protein; standard agonist PGE2
T2 construct: expressed in transfected cells
T2 sequence (P34995 1-402): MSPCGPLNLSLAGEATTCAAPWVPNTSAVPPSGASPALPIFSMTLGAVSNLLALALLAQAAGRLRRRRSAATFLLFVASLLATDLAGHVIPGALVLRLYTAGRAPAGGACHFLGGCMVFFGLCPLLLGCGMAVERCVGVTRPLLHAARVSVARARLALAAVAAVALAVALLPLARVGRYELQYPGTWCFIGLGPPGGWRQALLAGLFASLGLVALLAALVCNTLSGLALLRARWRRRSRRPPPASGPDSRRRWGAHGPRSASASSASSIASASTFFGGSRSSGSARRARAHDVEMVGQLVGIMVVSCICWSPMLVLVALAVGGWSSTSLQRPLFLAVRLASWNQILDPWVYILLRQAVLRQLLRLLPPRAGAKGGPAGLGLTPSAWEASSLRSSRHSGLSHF
Procedure: The above compounds were tested for PG antagonist activity as follows using human recombinant prostanoid receptor (DP1, EP1-4, FP, IP and TP) stable cell lines: In order to measure the response of Gs and Gi coupled prostanoid receptors as a Ca^2+ signal, chimeric G protein cDNAs were used. Stable cell lines over-expressing human prostanoid DP1, EP1-4, FP, IP, and TP receptors were established as follows:
Briefly, human prostanoid DP1, EP2, and EP4 receptor cDNAs were co-transfected with chimeric Gqs cDNA containing a haemagglutanin (HA) epitope; human prostanoid EP3 receptors were co-transfected with chimeric Gqi-HA; human EP1, FP, IP, and TP receptor cDNAs were expressed with no exogenous G-proteins. Gqs and Gqi chimeric cDNAs (Molecular Devices, Sunnyvale, Calif., U.S.A.), as well as cDNAs of prostanoid receptors, were cloned into a pCEP4 vector with a hygromycin B selection marker. Transfection into HEK-293 EBNA (Epstein-Barr virus nuclear antigen) cells was achieved by the FuGENE 6 transfection Reagent (Roche Applied Science, Indianapolis, Ind., USA). Stable transfectants were selected according to hygromycin resistance. Because Gqs and Gqi contained an HA epitope, G-protein expression was detected by Western blotting analysis using anti-mouse HA monoclonal antibody and horseradish peroxidase (HRP)-conjugated secondary antibody, while functional expression of prostanoid receptors was detected by FLIPR screening (Matias et al., 2004). These stable cell lines were validated using previously published antagonists at 10 μM against serial dilutions of standard agonists by FLIPR functional assays for Ca^2+ Signaling (as described below).
Ca^2+ signaling studies were performed using a FLIPR TETRA system (Molecular Devices, Sunnyvale, Calif., USA) in the 384-format. This is a high-throughput instrument for cell-based assays to monitor Ca^2+ signaling associated with GPCRs and ion channels. Cells were seeded at a density of 5×10^4 cells/well in BioCoat poly-D-lysine coated, black wall, clear bottom 384-well plates (BD Biosciences, Franklin lakes, NJ, USA) and allowed to attach overnight in an incubator at 37° C. The cells were then washed twice with HBSS-HEPES buffer (Hanks' balanced salt solution without bicarbonate and phenol red, 20 mM HEPES, pH 7.4) using an ELx405 Select CW Microplate Washer (BioTek, Winooski, Vt., USA). After 60 min of dye-loading in the dark using the Ca^2+-sensitive dye Fluo-4AM (Invitrogen, Carlsbad, Calif., USA), at a final concentration of 2×10^−6M, the plates were washed 4 times with HBSS-HEPES buffer to remove excess dye and leaving 50 μl of buffer in each well. The plates were then placed in the FLIPR TETRA instrument and allowed to equilibrate at 37° C. Compounds were added in a 25 μl volume to each well to give final concentrations of 0.1 μM, 0.3 μM, 1 μM, 3 μM, 10 μM, and 30 μM; or 0.067 μM, 0.1 μM, 0.2 μM, 0.3 μM, 0.67 μM, and 1 μM for cells over-expressing TP receptors. After 4.5 minutes, a 7-point serial dilution of the standard agonist for the corresponding receptor, in a 25 μl volume was injected at the final concentrations from 10^−11M to 10^−5M in 10-fold serial dilution increments for cells expressing human recombinant DP1, EP1, EP2, EP3, EP4, FP, and IP receptors. The dose range for the standard agonist for human recombinant TP receptors was from 10^−12M to 10^−6M. HBSS-HEPES buffer was used as the negative control for the standard agonists. Cells were excited with LED (light emitting diode) excitation at 470-495 nm and emission was measured through an emission filter at 515-575 nm. Assay plates were read for 3.5 minutes using the FLIPR^TETRA. The peak increase in fluorescence intensity was recorded for each well. On each plate, negative controls, dose response of positive controls, and co-treatments of antagonist-agonist for each dose were in triplicates. Standard agonists were as follows: DP=BW 245C, EP1-EP4=PGE2, FP=17-phenyl-PGF2α, IP=Cicaprost, and TP=U-46619. […]

[3] = target: T3, human prostanoid FP receptor (Homo sapiens, UniProt P43088); experiment: FLIPR Ca2+ signaling PG antagonist assay, FP stable cell line; conditions: HEK-293 EBNA cells, human recombinant FP, no exogenous G-protein; standard agonist 17-phenyl-PGF2α
T3 construct: expressed in transfected cells
T3 sequence (P43088 whole entry): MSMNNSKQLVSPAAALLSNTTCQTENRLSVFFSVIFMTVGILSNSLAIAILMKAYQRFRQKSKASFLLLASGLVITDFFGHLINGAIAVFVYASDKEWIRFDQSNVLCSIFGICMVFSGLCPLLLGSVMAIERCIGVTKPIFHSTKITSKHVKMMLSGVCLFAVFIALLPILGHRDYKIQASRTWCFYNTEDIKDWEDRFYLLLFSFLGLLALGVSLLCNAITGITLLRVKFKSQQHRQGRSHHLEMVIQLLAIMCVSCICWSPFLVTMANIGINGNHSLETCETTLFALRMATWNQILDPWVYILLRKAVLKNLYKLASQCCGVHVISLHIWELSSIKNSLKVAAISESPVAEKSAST
Outline: as §1

Compound	Kb [1]	Kb [2]	Kb [3]	FP (Kb, PG antagonist activity) [3]
CC(C)(O)COc1ccc(Br)cc1Cn1ncc2cc(C(=O)O)ccc21 [Example 53, 1-[5-Bromo-2-(2-Hydroxy-2-Methyl-Propoxy)-Benzyl]-1H-Indazole-5-Carboxylic Acid]	≥ 10000 nM	1500 nM	230 nM	
CC(C)COc1ccc(O)cc1Cn1ncc2cc(C(=O)O)ccc21 [Example 54]	9900 nM	1300 nM	1100 nM	
CC(C)COc1ccc(OCC(F)F)cc1Cn1ncc2cc(C(=O)O)ccc21 [Example 55, 1-[5-(2,2-Difluoro-Ethoxy)-2-Isobutoxy-Benzyl]-1H-Indazole-5-Carboxylic Acid]	1200 nM	40 nM	40 nM	
CC(C)COc1ccc(OC(F)F)cc1Cn1ncc2cc(C(=O)O)ccc21 [Example 56, 1-(5-Difluoromethoxy-2-Isobutoxy-Benzyl)-1H-Indazole-5-Carboxylic Acid]	1800 nM	24 nM	24 nM	
CC(C)COc1ccc(Cl)cc1Cn1ncc2cc(C(=O)O)cnc21 [Example 57, 1-(5-Chloro-2-Isobutoxy-Benzyl)-1H-Pyrazolo[3,4-B]Pyridine-5-Carboxylic Acid]	5500 nM	27 nM	190 nM	
CC(C)COc1ccc(OC(F)(F)F)cc1Cn1ncc2cc(C(=O)O)cnc21 [Example 58, 1-(2-Isobutoxy-5-Trifluoromethoxy-Benzyl)-1H-Pyrazolo[3,4-B]Pyridine-5-Carboxylic Acid]	1800 nM	30 nM	60 nM	
CCC(CC)COc1ccc(Br)cc1Cn1nc(C)c2cc(C(=O)O)cnc21 [Example 59, 1-[5-Bromo-2-(2-Ethyl-Butoxy)-Benzyl]-3-Methyl-1H-Pyrazolo[3,4-B]Pyridine-5-Carboxylic Acid]	520 nM	280 nM	1300 nM	
CCC(CC)COc1ccc(Cl)cc1Cn1nc(C)c2cc(C(=O)O)cnc21 [Example 60, 1-[5-Chloro-2-(2-Ethyl-Butoxy)-Benzyl]-3-Methyl-1H-Pyrazolo[3,4-B]Pyridine-5-Carboxylic Acid]	580 nM	410 nM	2500 nM	
Cc1nn(Cc2cc(Cl)ccc2OCC(C)C)c2ncc(C(=O)O)cc12 [Example 61, 1-(5-Chloro-2-Isobutoxy-Benzyl)-3-Methyl-1H-Pyrazolo[3,4-B]Pyridine-5-Carboxylic Acid]	740 nM	180 nM	1500 nM	
CCC(CC)COc1ccc(Cl)cc1Cn1ncc2cc(C(N)=O)ncc21 [Example 62, 1-[5-Chloro-2-(2-Ethyl-Butoxy)-Benzyl]-1H-Pyrazolo[3,4-C]Pyridine-5-Carboxylic Acid Amide]	5800 nM	≥ 10000 nM	≥ 10000 nM	
CCC(CC)COc1ccc(Cl)cc1Cn1ncc2cc(C(=O)O)ncc21 [Example 63, 1-[5-Chloro-2-(2-Ethyl-Butoxy)-Benzyl]-1H-Pyrazolo[3,4-C]Pyridine-5-Carboxylic Acid]	≥ 10000 nM	1200 nM	2400 nM	
CCc1nn(Cc2cc(Br)ccc2OCC(C)C)c2ccc(C(=O)O)cc12 [Example 64, 1-(5-Bromo-2-Isobutoxy-Benzyl)-3-Ethyl-1H-Indazole-5-Carboxylic Acid]	260 nM	5 nM	190 nM	
CCc1nn(Cc2cc(Br)ccc2OCC(CC)CC)c2ccc(C(=O)O)cc12 [Example 65, 1-[5-Bromo-2-(2-Ethyl-Butoxy)-Benzyl]-3-Ethyl-1H-Indazole-5-Carboxylic Acid]	1500 nM	40 nM		PAg
Cc1cc2cc(C(=O)O)ccc2n1Cc1cc(Br)ccc1OCC(C)C [Example 66, 1-(5-Bromo-2-Isobutoxy-Benzyl)-2-Methyl-1H-Indole-5-Carboxylic Acid]	≥ 10000 nM	50 nM	23 nM	
CC(C)COc1ccc(Br)cc1Cn1ccc2cc(C(=O)O)ccc21 [Example 67, 1-(5-Bromo-2-Isobutoxy-Benzyl)-1H-Indole-5-Carboxylic Acid]	≥ 10000 nM	60 nM	100 nM	
CCC(CC)COc1ccc(Br)cc1Cn1c(C)cc2cc(C(=O)O)ccc21 [Example 68, 1-[5-Bromo-2-(2-Ethyl-Butoxy)-Benzyl]-2-Methyl-1H-Indole-5-Carboxylic Acid]	≥ 10000 nM	≥ 10000 nM	≥ 10000 nM	
CCC(CC)COc1ccc(Br)cc1Cn1ccc2cc(C(=O)O)ccc21 [Example 69, 1-[5-Bromo-2-(2-Ethyl-Butoxy)-Benzyl]-1H-Indole-5-Carboxylic Acid]	3700 nM	250 nM	800 nM	
CCC(CC)COc1ccc(Br)cc1Cn1ccc2ccc(C(=O)O)cc21 [Example 70, 1-[5-Bromo-2-(2-Ethyl-Butoxy)-Benzyl]-1H-Indole-6-Carboxylic Acid]	2200 nM	200 nM	≥ 10000 nM	
CC(C)COc1ccc(OC(F)(F)F)cc1Cn1ccc2cc(C(=O)O)ccc21 [Example 71, 1-(2-Isobutoxy-5-Trifluoromethoxy-Benzyl)-1H-Indole-5-Carboxylic Acid]	≥ 10000 nM	100 nM	120 nM	
CC(C)COc1ccc(Br)cc1Cn1ccc2cc(C(=O)O)cnc21 [Example 72, 1-(5-Bromo-2-Isobutoxy-Benzyl)-1H-Pyrrolo[2,3-B]Pyridine-5-Carboxylic Acid]	1500 nM	10 nM	25 nM	
